Data set [1] has as its system caspase 3 in SKI-DLCL-1 cells. Kind of data set: Caspase 3 activation (EnzChek Caspase-3 Assay Kit #2, Z-DEVD-R110 cleavage). It is filed as cell-based, human.
Experimental: To further evaluate the activity of PDX and Gem combinations, Caspase activity was tested by EnzChek® Caspase-3 Assay Kit #2 (Molecular Probes) based upon the fluorometric detection of caspase-dependent Z-DEVD-R110 cleavage (rhodamine 110 bis-[N-CBZ-L-aspartyl-L-glutamyl-L-valyl-L-aspartic acid amide], a non-fluorescent bisamide), which, via a two step process, first yields the monoamide product (weakly fluorescent) and then the fluorescent product R110 (rhodamine 110, strongly fluorescent). Detection was performed on a Fluoroskan Ascent FL fluorescent plate reader (Thermo Lab Systems, Helsinki, Finland) according to the manufacturer's guidelines.
Data set [2] deals with SKI-DLCL-1 lymphoma cells. Kind of data set: Trypan Blue Exclusion cytotoxicity assay of single agents and combinations. Particulars: MTX 10 nM, PDX 1 nM, Ara-C 40 nM, Gem 10 nM, control = 1. Format: cell-based, human. An excerpt: As set forth in greater detail in the examples herein, combination therapy using PDX and gemcitabine has been tested in vitro and in in vivo model systems for efficacy against lymphoma. Table 1 sets forth data obtained in a cytotoxicity assay (Example 2) using SKI-DLCL-1 lymphoma cells. SKI-DLCL-1 is a diffuse large b cell lymphoma (DLBCL) cell line that is particularly resistant to PDX.
In Table 1, the additive effect is in each case the % of control for the single agents multiplied together. The expected additive effect for PDX+Gem is better than for MTX and ara-C, because the agents are individually better. What is observed for both MTX/AraC combinations and PDX/Gem combinations is that the actual result is better than the predicted additive result. The extent of this synergism is quantified in Table 1 as (actual-additive)/additive so that the amount of reduction that occurs through the use of the combination is expressed as a percentage of the expected additive benefit.
To evaluate cytotoxicity of combination of PDX and GEM, a Trypan Blue Exclusion Assay was performed by aliquoting 5×10^5 SKI-DLBCL cells into each well of a 24 well plate with a final volume of 1 milliliter. Each drug was added in duplicate to the plate wells as follows: alone (MTX 10 nM, PDX 1 nM, Ara-C 40 nM, or Gem 10 nM), PDX+Gem or MTX+Ara-C for 48 h (hours). For the scheduled administration of drug, PDX or MTX alone were dispensed in additional duplicate wells. After 24 hours Gem and Ara-C were added to these wells, respectively, and incubated for 48 hours. At the end of incubation, 20 l of each cell culture was added to 20 l of trypan blue, after which […] was added to a hemocytometer (Hausser Scientific, Horsham, Pa.), where viable cells were counted based upon the presence (dead cells) or exclusion (live cells) of dye.

Data set [3] relates to SKI-DLCL-1 (Diffuse large B Cell) cell line. Kind of data set: Growth inhibition in vitro (XTT or Alamar blue). It is filed as cell-based, human. The procedure: A PDX preparation prepared in accordance with Example 1 and an MTX preparation were tested for cytotoxicity against a panel of five human lymphoma cell lines. Experiments were performed as described previously. (Sirotnak et al., Cancer Chemother. […] Colorimetric dye (XTT or Alamar blue) was added for an addition period of time (XTT dye, 6 hours, Alamar blue, 24 hours). Each plate was then read on an automated plate reader at 590 nm. The percentage of inhibition was calculated as growth of cells exposed to drug divided by growth of controls (cells incubated with media only). […] Experiments were repeated as lest three times.

For data set [4] the following is noted: cited from earlier work.
The test system of data set [5] is Raji (Burkitt's) cell line. Kind of data set: Growth inhibition in vitro (XTT or Alamar blue). Format: cell-based, human. Particulars: 5 day continuous drug exposure. The protocol:
(§1) A PDX preparation prepared in accordance with Example 1 and an MTX preparation were tested for cytotoxicity against a panel of five human lymphoma cell lines. Experiments were performed as described previously. (Sirotnak et al., Cancer Chemother. Pharmacol. 12: 18-25 (1984). In brief, 2.5 to 5×10^3 cells were plated per well in 96-well flat bottom plates. Drug was added in a 0.9% NaCl solution (pH 7.0) over a range of concentrations, and cells were continuously exposed to drug for 5 days. Colorimetric dye (XTT or Alamar blue) was added for an addition period of time (XTT dye, 6 hours, Alamar blue, 24 hours). Each plate was then read on an automated plate reader at 590 nm. The percentage of inhibition was calculated as growth of cells exposed to drug divided by growth of controls (cells incubated with media only). IC50 values were determined as the drug concentrations at which cell growth was inhibited 50% as compared to controls. Experiments were repeated as lest three times. Experiments were also conducted with continuous drug exposures lasting for 3 and 4 days with results similar to the 5 day results.

The subject of data set [6] is RL (Transformed follicular) cell line. Kind of data set: Growth inhibition in vitro (XTT or Alamar blue). Format: cell-based, human. Conditions: 5 day continuous drug exposure. The protocol:
as §1

Data set [7] concerns Hs445 (Hodgkin's disease) cell line. Kind of data set: Growth inhibition in vitro (XTT or Alamar blue). Particulars: 5 day continuous drug exposure. It is filed as cell-based, human. The protocol:
as §1

Data set [8] has as its system HT (Diffuse large B cell) cell line. Kind of data set: Growth inhibition in vitro (XTT or Alamar blue). Format: cell-based, human. Conditions: 5 day continuous drug exposure. The protocol: as §1
The test system of the next data set is SKI-DLCL-1 cells. Kind of data set: Induction of apoptosis (YO-PRO-1/propidium iodide flow cytometry). Conditions: all drugs 1 nM, total exposure 72 hours, sequential: first drug 24 hours prior to second. Format: cell-based, human. The procedure:
Ara-C, PDX and Gem in combined and scheduled exposures. In each case, the total exposure time was 72 hours. In sequential treatments, the first drug was administered 24 hours prior to the second drug.
To assess apoptosis occurring as a result of combination therapies, apoptosis was assessed using two well standardized techniques. In the first (YO-PRO), cell membrane permeability was determined by measuring fluorescence of treated and control cells. 2×10^7 SKI-DLBCL cells were treated with either MTX, Ara-C, Gem or PDX alone or combinations of drug given together or scheduled. All drugs were assayed at equimolar concentrations (i.e. 1 nM). The incubation conditions were modeled after the in vitro cytotoxicity experiments. Single agent drugs or combinations of all drugs studied without schedule considerations were incubated for 72 hours, while drugs that were studied in some schedule were introduced in a 24+48 incubation scheme (i.e. drug B added 24 hours following drug A, then incubated for an additional 48 hours for a total incubation time of 72 hours). Cells were then collected, washed twice and re-suspended at a concentration of 1×10^6/mL in DPBS. Membrane permeability was detected via the differential cellular permeability of the fluorescent dyes YO-PRO®-1 and propidium iodide by flow cytometry, as per the manufacturer's guidelines (Vybrant apoptosis kit #4, Molecular Probes, Eugene, Oreg.). In addition to monitoring apoptosis, cell cycle kinetic analyses were also performed on all treated cells based the propidium iodide binding. Apoptotic cells were noted to be permeable to the green fluorescent dye YO-PRO®-1 (em 530, FL-1), and impermeable to the red fluorescent dye propidium iodide (em 575, FL-3). Typically, […] cells allow the entrance of both dyes, whereas living cells are impermeable to both dyes.

Structures are written as SMILES.

These results are taken from patent US7939530B2, “Treatment of lymphoma using 10-propargyl-10-deazaaminopterin and gemcitabine” (Sloan-Kettering Institute for Cancer Research, priority 2004, dated 2011).

`C#CCC(Cc1cnc2nc(N)nc(N)c2n1)c1ccc(C(=O)N[C@@H](CCC(=O)O)C(=O)O)cc1` (stereo partly drawn) [PDX, 10-Propargyl-10-deazaminopterin]: the “Fluorescence at 485ex/527em” value in data set [1] (1 nM, control 134.3) came out at 265.5. The molecule also yielded a Difference from control in data set [1] (fluorescence at 485ex/527em) of 131.2. For the same molecule, the fraction of control in data set [2] is listed as 0.84. The IC50 came to 5.1 ± 0.1 nM in data set [3] (SKI-DLCL-1, 5 day continuous drug exposure); 2 ± 0.3 nM in [5]; 23 ± 2 nM in data set [6]; 1.6 ± 0.8 nM in [7]; 2 ± 0.4 nM in [8]. Also, the “EC50 in SKI-DLCL-1 relative to other B-cell lymphoma cell lines” value in [3] (roughly, fold greater) is 2 to 3 fold. Further, the “maximum tolerated dose (MTD)” value in data set [4] (intraperitoneal, twice weekly for two weeks) is 60 mg/kg. Further, the “toxic deaths at the MTD” value in data set [4] (nude mice) is given as “no toxic deaths”. The “% change in apoptosis” value in the data set on SKI-DLCL-1 cells came to 28.21%.
